The supplement of paper PMC10307832

What was measured:
Test in all cases: relative viability (nuclei count vs DMSO), 5 days (fraction); higher = more cells survive
Masitinib + OSI-027 = compound: Cc1ccc(NC(=O)c2ccc(CN3CCN(C)CC3)cc2)cc1Nc1nc(-c2cccnc2)cs1 [Masitinib] + COc1cccc2cc(-c3nc([C@H]4CC[C@H](C(=O)O)CC4)n4ncnc(N)c34)[nH]c12 [OSI-027] (partner 0.5 µM)
Summary of the method: (§1)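 One day after seeding in 1536-well plates, lung cancer cell lines were dosed by pin tool. Dosing was either single-drug or a fixed anchor-drug dose plus five library-drug doses (not always all listed) in √10 steps. After 5 days, nuclei were stained in one fix-and-stain step and counted on 4× images, and relative viability is the nuclei count of treated wells over that of vehicle wells, given as the median of duplicate plates.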

Masitinib + Olaparib = compound: Cc1ccc(NC(=O)c2ccc(CN3CCN(C)CC3)cc2)cc1Nc1nc(-c2cccnc2)cs1 [Masitinib] + O=C(c1cc(Cc2n[nH]c(=O)c3ccccc23)ccc1F)N1CCN(C(=O)C2CC2)CC1 [Olaparib] (partner 8 µM)
Summary of the method: as §1

[1] = compound: CC1=CC(=CC=C1)NC2=NC(=CS2)C3=CC=NC=C3 + Nc1nc2[nH]cc(CCc3ccc(C(=O)N[C@@H](CCC(=O)O)C(=O)O)cc3)c2c(=O)[nH]1 [Pemetrexed] (partner 0.2 µM)
Summary of the method: as §1

Masitinib + Decitabine = compound: Cc1ccc(NC(=O)c2ccc(CN3CCN(C)CC3)cc2)cc1Nc1nc(-c2cccnc2)cs1 [Masitinib] + Nc1ncn([C@H]2C[C@H](O)[C@@H](CO)O2)c(=O)n1 [Decitabine] (partner 2 µM)
Summary of the method: as §1

Cell Line: NCI-H1755
- relative viability (Masitinib + OSI-027; first compound 0.03162 µM): 0.703
- relative viability (Masitinib + OSI-027; first compound 0.1 µM): 0.686
- relative viability (Masitinib + OSI-027; first compound 0.3162 µM): 0.687
- relative viability (Masitinib + OSI-027; first compound 1 µM): 0.649
- relative viability (Masitinib + Olaparib; first compound 0.01 µM): 0.769
- relative viability (Masitinib + Olaparib; first compound 0.03162 µM): 0.832
- relative viability (Masitinib + Olaparib; first compound 0.1 µM): 0.893
- relative viability (Masitinib + Olaparib; first compound 0.3162 µM): 0.849
- relative viability (Masitinib + Olaparib; first compound 1 µM): 0.755
- relative viability ([1]; first compound 0.08 µM): 0.35
- relative viability ([1]; first compound 0.253 µM): 0.445
- relative viability ([1]; first compound 0.8 µM): 0.393
- relative viability ([1]; first compound 2.53 µM): 0.401
- relative viability ([1]; first compound 8 µM): 0.397
- relative viability (Masitinib + Decitabine; first compound 0.01 µM): 0.612
- relative viability (Masitinib + Decitabine; first compound 0.03162 µM): 0.711
- relative viability (Masitinib + Decitabine; first compound 0.1 µM): 0.733
- relative viability (Masitinib + Decitabine; first compound 0.3162 µM): 0.709
- relative viability (Masitinib + Decitabine; first compound 1 µM): 0.647

Cell Line: H3255
- relative viability (Masitinib + OSI-027; first compound 0.01 µM): 0.588
- relative viability (Masitinib + OSI-027; first compound 0.03162 µM): 0.652
- relative viability (Masitinib + OSI-027; first compound 0.1 µM): 0.617
- relative viability (Masitinib + OSI-027; first compound 0.3162 µM): 0.504
- relative viability (Masitinib + OSI-027; first compound 1 µM): 0.538
- relative viability (Masitinib + Olaparib; first compound 0.01 µM): 0.474
- relative viability (Masitinib + Olaparib; first compound 0.03162 µM): 0.566
- relative viability (Masitinib + Olaparib; first compound 0.1 µM): 0.513
- relative viability (Masitinib + Olaparib; first compound 0.3162 µM): 0.545
- relative viability (Masitinib + Olaparib; first compound 1 µM): 0.555
- relative viability ([1]; first compound 0.08 µM): 0.585
- relative viability ([1]; first compound 0.253 µM): 0.546
- relative viability ([1]; first compound 0.8 µM): 0.568
- relative viability ([1]; first compound 2.53 µM): 0.54
- relative viability ([1]; first compound 8 µM): 0.54
- relative viability (Masitinib + Decitabine; first compound 0.01 µM): 0.488
- relative viability (Masitinib + Decitabine; first compound 0.03162 µM): 0.67
- relative viability (Masitinib + Decitabine; first compound 0.1 µM): 0.439
- relative viability (Masitinib + Decitabine; first compound 0.3162 µM): 0.626
- relative viability (Masitinib + Decitabine; first compound 1 µM): 0.534

Cell Line: 201T
- relative viability (Masitinib + OSI-027; first compound 0.01 µM): 0.792
- relative viability (Masitinib + OSI-027; first compound 0.03162 µM): 0.534
- relative viability (Masitinib + OSI-027; first compound 0.1 µM): 0.745
- relative viability (Masitinib + OSI-027; first compound 1 µM): 0.729
- relative viability (Masitinib + Olaparib; first compound 0.01 µM): 0.702
- relative viability (Masitinib + Olaparib; first compound 0.03162 µM): 0.901
- relative viability (Masitinib + Olaparib; first compound 0.1 µM): 0.765
- relative viability (Masitinib + Olaparib; first compound 0.3162 µM): 0.721
- relative viability (Masitinib + Olaparib; first compound 1 µM): 0.806
- relative viability ([1]; first compound 0.08 µM): 0.339
- relative viability ([1]; first compound 0.253 µM): 0.293
- relative viability ([1]; first compound 0.8 µM): 0.321
- relative viability ([1]; first compound 2.53 µM): 0.301
- relative viability ([1]; first compound 8 µM): 0.334
- relative viability (Masitinib + Decitabine; first compound 0.01 µM): 0.762
- relative viability (Masitinib + Decitabine; first compound 0.03162 µM): 0.861
- relative viability (Masitinib + Decitabine; first compound 0.1 µM): 0.848
- relative viability (Masitinib + Decitabine; first compound 0.3162 µM): 0.921
- relative viability (Masitinib + Decitabine; first compound 1 µM): 0.881

Cell Line: HOP-62
- relative viability (Masitinib + OSI-027; first compound 0.01 µM): 0.759
- relative viability (Masitinib + OSI-027; first compound 0.03162 µM): 0.866
- relative viability (Masitinib + OSI-027; first compound 0.1 µM): 0.923
- relative viability (Masitinib + OSI-027; first compound 0.3162 µM): 0.929
- relative viability (Masitinib + OSI-027; first compound 1 µM): 0.837
- relative viability (Masitinib + Olaparib; first compound 0.01 µM): 0.312
- relative viability (Masitinib + Olaparib; first compound 0.03162 µM): 0.819
- relative viability (Masitinib + Olaparib; first compound 0.1 µM): 0.451
- relative viability (Masitinib + Olaparib; first compound 0.3162 µM): 0.289
- relative viability (Masitinib + Olaparib; first compound 1 µM): 0.418
- relative viability ([1]; first compound 0.08 µM): 0.325
- relative viability ([1]; first compound 0.253 µM): 0.412
- relative viability ([1]; first compound 0.8 µM): 0.458
- relative viability ([1]; first compound 2.53 µM): 0.369
- relative viability ([1]; first compound 8 µM): 0.319
- relative viability (Masitinib + Decitabine; first compound 0.01 µM): 0.22
- relative viability (Masitinib + Decitabine; first compound 0.03162 µM): 0.222
- relative viability (Masitinib + Decitabine; first compound 0.1 µM): 0.23
- relative viability (Masitinib + Decitabine; first compound 0.3162 µM): 0.201
- relative viability (Masitinib + Decitabine; first compound 1 µM): 0.212

Cell Line: NCI-H596
- relative viability (Masitinib + OSI-027; first compound 0.01 µM): 0.87
- relative viability (Masitinib + OSI-027; first compound 0.03162 µM): 0.678
- relative viability (Masitinib + OSI-027; first compound 0.1 µM): 0.73
- relative viability (Masitinib + OSI-027; first compound 0.3162 µM): 0.717
- relative viability (Masitinib + OSI-027; first compound 1 µM): 0.697
- relative viability (Masitinib + Olaparib; first compound 0.01 µM): 0.593
- relative viability (Masitinib + Olaparib; first compound 0.03162 µM): 0.657
- relative viability (Masitinib + Olaparib; first compound 0.1 µM): 0.634
- relative viability (Masitinib + Olaparib; first compound 0.3162 µM): 0.581
- relative viability (Masitinib + Olaparib; first compound 1 µM): 0.633
- relative viability ([1]; first compound 0.08 µM): 0.494
- relative viability ([1]; first compound 0.253 µM): 0.472
- relative viability ([1]; first compound 0.8 µM): 0.446
- relative viability ([1]; first compound 2.53 µM): 0.454
- relative viability ([1]; first compound 8 µM): 0.463
- relative viability (Masitinib + Decitabine; first compound 0.01 µM): 0.994
- relative viability (Masitinib + Decitabine; first compound 0.03162 µM): 0.959
- relative viability (Masitinib + Decitabine; first compound 0.1 µM): 1.11
- relative viability (Masitinib + Decitabine; first compound 0.3162 µM): 1.14
- relative viability (Masitinib + Decitabine; first compound 1 µM): 0.934

Cell Line: NCI-H1792
- relative viability (Masitinib + OSI-027; first compound 0.01 µM): 0.762
- relative viability (Masitinib + OSI-027; first compound 0.03162 µM): 0.402
- relative viability (Masitinib + OSI-027; first compound 0.1 µM): 0.71
- relative viability (Masitinib + OSI-027; first compound 0.3162 µM): 0.563
- relative viability (Masitinib + OSI-027; first compound 1 µM): 0.9
- relative viability (Masitinib + Olaparib; first compound 0.01 µM): 0.528
- relative viability (Masitinib + Olaparib; first compound 0.03162 µM): 0.257
- relative viability (Masitinib + Olaparib; first compound 0.1 µM): 0.303
- relative viability (Masitinib + Olaparib; first compound 0.3162 µM): 0.377
- relative viability (Masitinib + Olaparib; first compound 1 µM): 0.396
- relative viability ([1]; first compound 0.08 µM): 0.453
- relative viability ([1]; first compound 0.253 µM): 0.682
- relative viability ([1]; first compound 0.8 µM): 0.651
- relative viability ([1]; first compound 2.53 µM): 0.67
- relative viability ([1]; first compound 8 µM): 0.784
- relative viability (Masitinib + Decitabine; first compound 0.01 µM): 0.621
- relative viability (Masitinib + Decitabine; first compound 0.03162 µM): 0.443
- relative viability (Masitinib + Decitabine; first compound 0.1 µM): 0.51
- relative viability (Masitinib + Decitabine; first compound 0.3162 µM): 0.438
- relative viability (Masitinib + Decitabine; first compound 1 µM): 0.472

Cell Line: NCI-H2085
- relative viability (Masitinib + OSI-027; first compound 0.01 µM): 0.627
- relative viability (Masitinib + OSI-027; first compound 0.03162 µM): 0.666
- relative viability (Masitinib + OSI-027; first compound 0.1 µM): 0.918
- relative viability (Masitinib + OSI-027; first compound 0.3162 µM): 0.47
- relative viability (Masitinib + OSI-027; first compound 1 µM): 0.604
- relative viability (Masitinib + Olaparib; first compound 0.01 µM): 0.729
- relative viability (Masitinib + Olaparib; first compound 0.03162 µM): 0.805
- relative viability (Masitinib + Olaparib; first compound 0.1 µM): 0.798
- relative viability (Masitinib + Olaparib; first compound 0.3162 µM): 0.815
- relative viability (Masitinib + Olaparib; first compound 1 µM): 0.728
- relative viability ([1]; first compound 0.08 µM): 0.774
- relative viability ([1]; first compound 0.253 µM): 0.943
- relative viability ([1]; first compound 0.8 µM): 0.84
- relative viability ([1]; first compound 2.53 µM): 0.806
- relative viability ([1]; first compound 8 µM): 0.711
- relative viability (Masitinib + Decitabine; first compound 0.01 µM): 0.55
- relative viability (Masitinib + Decitabine; first compound 0.03162 µM): 0.522
- relative viability (Masitinib + Decitabine; first compound 0.1 µM): 0.511
- relative viability (Masitinib + Decitabine; first compound 0.3162 µM): 0.536
- relative viability (Masitinib + Decitabine; first compound 1 µM): 0.509

Cell Line: NCI-H2023
- relative viability (Masitinib + OSI-027; first compound 0.01 µM): 0.387
- relative viability (Masitinib + OSI-027; first compound 0.03162 µM): 0.412
- relative viability (Masitinib + OSI-027; first compound 0.1 µM): 0.592
- relative viability (Masitinib + OSI-027; first compound 0.3162 µM): 0.271
- relative viability (Masitinib + OSI-027; first compound 1 µM): 0.27
- relative viability (Masitinib + Olaparib; first compound 0.01 µM): 0.63
- relative viability (Masitinib + Olaparib; first compound 0.03162 µM): 0.422
- relative viability (Masitinib + Olaparib; first compound 0.1 µM): 0.458
- relative viability (Masitinib + Olaparib; first compound 0.3162 µM): 0.427
- relative viability (Masitinib + Olaparib; first compound 1 µM): 0.44
- relative viability ([1]; first compound 0.08 µM): 0.211
- relative viability ([1]; first compound 0.253 µM): 0.18
- relative viability ([1]; first compound 0.8 µM): 0.274
- relative viability ([1]; first compound 2.53 µM): 0.195
- relative viability ([1]; first compound 8 µM): 0.187
- relative viability (Masitinib + Decitabine; first compound 0.01 µM): 0.205
- relative viability (Masitinib + Decitabine; first compound 0.03162 µM): 0.271
- relative viability (Masitinib + Decitabine; first compound 0.1 µM): 0.327
- relative viability (Masitinib + Decitabine; first compound 0.3162 µM): 0.195
- relative viability (Masitinib + Decitabine; first compound 1 µM): 0.187
